Measurements published in PMC11224556, “Next-generation of BBQ analogues that selectively target breast cancer” (Frontiers in Chemistry, 2024).
Like-named read-outs stand apart in the source and are kept apart here.

How the values were obtained:
[1] = system: BT474 breast cancer cells; assay: MTT growth inhibition assay (72 h); format: cell-based, human
Excerpt: (§1) Each BBQ analogue, 2-14 was screened for their growth inhibition ability (GI50) in a broad panel of cancer cell lines and a non-cancer breast cell line (MCF10A), using the MTT growth inhibition assay (Table 1) ([Baker et al., 2021b]). The cancer panel comprised HT29 (colorectal), U87 (brain), SJ-G2 (brain), A2780 (ovary), Du145 (prostate), BE2-C (neuronal), MIA (pancreas), H460 (lung, ER+), A431 (vulva, ER+ (estrogen receptor positive)), and a wide selection of breast cancer cell lines with varying receptor status including MCF-7 (ER + luminal A), T47D (ER/PR+ (progesterone receptor positive)luminal A), ZR-75-1 (ER/PR + luminal A), BT-474 (ER/PR/HER2+ luminal B), SKBR-3 (HER2+), MDA-MB-468, BT20, and MDA-MB-231 (basal, triple negative (TN) for ER, PR, and HER2).
(§2) Stock solutions were prepared as follows and stored as 20 mM DMSO solutions at −20 °C. All cell lines were cultured in a humidified atmosphere 5% CO2 at 37 °C. The cancer cell lines were maintained in Dulbecco’s modified Eagle’s medium (DMEM) (Trace Biosciences, Australia) supplemented with 10% foetal bovine serum (FBS), 10 mM sodium bicarbonate, penicillin (100 IU/mL), streptomycin (100 μg/mL), and glutamine (4 mM). The non-cancer MCF10A cell line was cultured in DMEM:F12 (1:1) cell culture media, 5% heat inactivated horse serum, supplemented with penicillin (50 IU/mL), streptomycin (50 μg/mL), 20 mM Hepes, L-glutamine (2 mM), epidermal growth factor (20 ng/mL), hydrocortisone (500 ng/mL), cholera toxin (100 ng/mL), and insulin (10 μg/mL). The AhR reporter cell line HT29-Lucia™ (Invivogen, United States) was maintained in DMEM supplemented with 10% heat inactivated FBS, L-glutamine (2 mM), penicillin (100 IU/mL), streptomycin (100 μg/mL), 100 μg/mL Normocin™, and 100 μg/mL of the selective antibiotic Zeocin™. All cell lines were purchased from the American Type Culture Collection (ATCC), except for A2780 and A431 which were from the European Collection of Authenticated Cell Cultures (ECACC), and SJ-G2 cell line which was from Dr Mary Danks, St Jude Children’s Research hospital, Memphis, TN.
(§3) Cells in logarithmic growth were transferred to 96-well plates. Cytotoxicity was determined by plating cells in duplicate in 100 μL medium at a density of 2,500–4,000 cells/well in 96 well plates. On day 0, (24 h after plating) when the cells were in logarithmic growth 100 μL medium with or without the test agent was added to each well. After 72 h drug exposure growth inhibitory effects were evaluated using the MTT (3-[4,5-dimethylthiazol-2-yl]-2,5-diphenyltetrazolium bromide) assay with absorbance read at 540 nm. An eight-point dose response curve was produced, using MS Excel software. From these dose-response curves, the GI50 value was calculated, representing the drug concentration at which cell growth is 50% inhibited based on the difference between the optical density values on day 0 and those at the end of drug exposure ([Bradshaw et al., 2008]; [Zhang et al., 2009]). Each data point was conducted in duplicate and the mean ± S.E.M. calculated from four to five replicates (n = 4 or 5), which were performed on separate occasions and separate cell line passages. Where shown, significant test results were determined using T-test analysis at p < 0.01 and p < 0.05 with a two tail distribution.

BE2-C (neuronal) cells = assay: MTT growth inhibition assay (72 h); format: cell-based, human; conditions: Neuron
Excerpt: as §1, §2, §3

HT29 (colorectal) cells = assay: MTT growth inhibition assay (72 h); format: cell-based, human
Excerpt: as §1, §2, §3

[2] = system: MCF-7 breast cancer cells; assay: MTT growth inhibition assay (72 h); format: cell-based, human
Excerpt: as §1, §2, §3

H460 (lung) cells = assay: MTT growth inhibition assay (72 h); format: cell-based, human
Excerpt: as §1, §2, §3

[3] = system: MCF10A normal breast cells; assay: MTT growth inhibition assay (72 h); format: cell-based, human
Excerpt: as §1, §2, §3

T47D breast cancer cells = assay: MTT growth inhibition assay (72 h); format: cell-based, human; conditions: Breast (ER/PR)
Excerpt: as §1, §2, §3

[4] = system: MDA-MB-468 breast cancer cells; assay: MTT growth inhibition assay (72 h); format: cell-based, human; conditions: MDA-MB-468, Breast (TN)
Excerpt: as §1, §2, §3

[5] = system: SKBR3 breast cancer cells; assay: MTT growth inhibition assay (72 h); format: cell-based, human
Excerpt: as §1, §2, §3

BT20 breast cancer cells = assay: MTT growth inhibition assay (72 h); format: cell-based, human
Excerpt: as §1, §2, §3

[6] = system: ZR-75-1 breast cancer cells; assay: MTT growth inhibition assay (72 h); format: cell-based, human; conditions: ZR-75-1, Breast (ER/PR)
Excerpt: as §1, §2, §3

U87 (brain) cells = assay: MTT growth inhibition assay (72 h); format: cell-based, human; conditions: U87, Brain (GBM)
Excerpt: as §1, §2, §3

A431 (vulva/skin) cells = assay: MTT growth inhibition assay (72 h); format: cell-based, human
Excerpt: as §1, §2, §3

SJ-G2 (brain) cells = assay: MTT growth inhibition assay (72 h); format: cell-based, human; conditions: SJ-G2, Brain (GBM)
Excerpt: as §1, §2, §3

Du145 (prostate) cells = assay: MTT growth inhibition assay (72 h); format: cell-based, human
Excerpt: as §1, §2, §3

MIA (pancreas) cells = assay: MTT growth inhibition assay (72 h); format: cell-based, human
Excerpt: as §1, §2, §3

A2780 (ovary) cells = assay: MTT growth inhibition assay (72 h); format: cell-based, human
Excerpt: as §1, §2, §3

[7] = system: MDA-MB-231 breast cancer cells; assay: MTT growth inhibition assay (72 h); format: cell-based, human; conditions: MDA-MB-231, Breast (TN)
Excerpt: as §1, §2, §3

[8] = system: broad panel of cancer cell lines and non-cancer breast cell line MCF10A; assay: MTT growth inhibition: GI50 ranges and selectivity across the cell line panel; format: cell-based, human
Excerpt: as §1, §2, §3

[9] = system: broad panel of cancer cell lines and non-cancer breast cell line MCF10A; conditions: cited from earlier work
[10] = Homo sapiens, BT-474, BT474, Breast (ER/PR/HER2)
[11] = Homo sapiens, HT-29, HT29, Colon
[12] = Homo sapiens, MCF7, MCF-7, Breast (ER)
[13] = Homo sapiens, NCI-H460, H460, Lung (ER)
[14] = Homo sapiens, SK-BR-3, SKBR3, Breast (HER2)
[15] = Homo sapiens, BT-20, BT20, Breast (TN)
[16] = Homo sapiens, A-431, A431, Skin (ER)
[17] = Homo sapiens, read-out: GI50 (range over cell lines and both compounds 3 and 4), ZR-75-1, SKBR3 and MDA-MB-468

Compound: 3-Chloro-7H-benzo[de]benzo[4,5]imidazo[2,1-a]isoquinolin-7-one (10a) and 4-chloro-7H-benzo[de]benzo[4,5]imidazo[2,1-a]isoquinolin-7-one (10b) [Compound 10]
- GI50 ([1]; BT474, Breast (ER/PR/HER2)): 0.56 ± 0.42 µM
- GI50 (BE2-C (neuronal) cells): 7 ± 0.23 µM
- GI50 (HT29 (colorectal) cells; HT29, Colon): 2.9 ± 0.18 µM
- GI50 ([2]; MCF-7, Breast (ER)): 0.14 ± 0.045 µM
- GI50 (H460 (lung) cells; H460, Lung (ER)): 5.7 ± 1.48 µM
- GI50 [3]: 4.2 ± 0.38 µM
- GI50 (T47D breast cancer cells): 0.18 ± 0.019 µM
- GI50 [4]: 0.0056 ± 0.0017 µM
- GI50 ([5]; SKBR3, Breast (HER2)): 0.061 ± 0.024 µM
- GI50 (BT20 breast cancer cells; BT20, Breast (TN)): 0.27 ± 0.12 µM
- GI50 [6]: 0.072 ± 0.03 µM
- GI50 (U87 (brain) cells): 37 ± 5.8 µM
- GI50 (A431 (vulva/skin) cells; A431, Skin (ER)): 0.15 ± 0.036 µM
- GI50 (SJ-G2 (brain) cells): 4.8 ± 0.44 µM
- GI50 (Du145 (prostate) cells): > 50 µM
- GI50 (MIA (pancreas) cells): 9.8 ± 3.1 µM
- GI50 (A2780 (ovary) cells): 4.6 ± 0.25 µM
- GI50 [7]: 29 ± 10.3 µM
- selectivity relative to the normal cell line (fold, range over cell lines) ([8]; A431, MCF-7, T47D, ZR-75-1, SKBR-3, MDA-MB-468, BT20, BT474 vs MCF10A): 7.5 to 750 fold
- GI50 ([8]; MCF-7, T47D, ZR-75-1, SKBR-3, MDA-MB-468, BT20, BT474, read-out: GI50 (range over cell lines)): 0.0056 to 0.56 µM
- fold more potent than head group substituted analogues 3, 4, 6, 7, 8 and 9 ([8]; across the cell lines examined (Table 1)): > 10 fold

Compound: Nc1ccccc1N1C(=O)c2cccc3cccc(c23)C1=O [Compound 2, 2-(2-aminophenyl)-1H-benzo[de]isoquinoline-1,3(2H)-dione]
- GI50 ([9]; A431, MCF-7, T47D, ZR-75-1, SKBR3, MDA-MB-468, BT474, ref Gilbert et al., 2020, read-out: GI50 (range over cell lines)): 0.1 to 0.7 µM
- selective targeting of certain breast cancer cell lines compared with normal breast cells or other tumour types (fold) ([9]; ref Gilbert et al., 2017, Gilbert et al., 2020): more than 500 fold
- increase in growth inhibition potency compared with MCF10A cells (fold, range over cell lines) ([8]; A431, T47D, ZR-75-1, SKBR3, MDA-MB-468 vs MCF10A, from GI50 values of ref Gilbert et al., 2020): 100 to 300 fold

Compound: O=c1c2cccc3cccc(c32)c2nc3ccc(Cl)cc3n12 [Compound 3, 10-Chloro-7H-benzo[de]benzo[4,5]imidazo[2,1-a]isoquinolin-7-one]
- GI50 [1, 10]: > 50 µM
- GI50 (BE2-C (neuronal) cells; Homo sapiens, BE(2)-C): 17 ± 4.3 µM
- GI50 (HT29 (colorectal) cells; [11]): 21 ± 3.3 µM
- GI50 [2, 12]: 7.9 ± 1.14 µM
- GI50 (H460 (lung) cells; [13]): 7.2 ± 1.16 µM
- GI50 ([3]; Homo sapiens, MCF-10A): 3.9 ± 0.21 µM
- GI50 (T47D breast cancer cells; Homo sapiens): 11 ± 1.4 µM
- GI50 [5, 14]: 0.3 ± 0.12 µM
- GI50 (BT20 breast cancer cells; [15]): 33 ± 4 µM
- GI50 ([6]; Homo sapiens): 0.48 ± 0.24 µM
- GI50 (U87 (brain) cells; Homo sapiens): 18 ± 3.8 µM
- GI50 (A431 (vulva/skin) cells; [16]): 12 ± 1.8 µM
- GI50 (SJ-G2 (brain) cells; Homo sapiens): 33 ± 8.3 µM
- GI50 (Du145 (prostate) cells; Homo sapiens, DU-145): 22 ± 3.1 µM
- GI50 (MIA (pancreas) cells; Homo sapiens): > 50 µM
- GI50 (A2780 (ovary) cells; Homo sapiens): 6.2 ± 0.46 µM
- GI50 ([7]; Homo sapiens): 17 ± 6.1 µM
- selective in targeting certain breast cancer cell lines compared with normal cells or other tumour types (fold) ([9]; ref Baker et al., 2021a, Elson et al., 2023): up to 150 fold
- GI50 [8, 17]: 0.26 to 0.88 µM

Compound: O=c1c2cccc3cccc(c32)c2nc3cc(Cl)ccc3n12 [Compound 4, 11-Chloro-7H-benzo[de]benzo[4,5]imidazo[2,1-a]isoquinolin-7-one]
- GI50 [1, 10]: > 50 µM
- GI50 (BE2-C (neuronal) cells; Homo sapiens, BE(2)-C): 10 ± 1.7 µM
- GI50 (HT29 (colorectal) cells; [11]): 18 ± 3.2 µM
- GI50 [2, 12]: 5.3 ± 0.39 µM
- GI50 (H460 (lung) cells; [13]): 8.2 ± 1.92 µM
- GI50 ([3]; Homo sapiens, MCF-10A): 4.1 ± 0.2 µM
- GI50 (T47D breast cancer cells; Homo sapiens): 8.6 ± 2.2 µM
- GI50 ([4]; Homo sapiens): 0.88 ± 0.17 µM
- GI50 [5, 14]: 0.26 ± 0.07 µM
- GI50 (BT20 breast cancer cells; [15]): 28 ± 3 µM
- GI50 ([6]; Homo sapiens): 0.81 ± 0.43 µM
- GI50 (U87 (brain) cells; Homo sapiens): 18 ± 1.8 µM
- GI50 (A431 (vulva/skin) cells; [16]): 10 ± 2 µM
- GI50 (SJ-G2 (brain) cells; Homo sapiens): 8.8 ± 1.1 µM
- GI50 (Du145 (prostate) cells; Homo sapiens, DU-145): 12 ± 0.33 µM
- GI50 (MIA (pancreas) cells; Homo sapiens): 31 ± 3.3 µM
- GI50 (A2780 (ovary) cells; Homo sapiens): 6 ± 0.32 µM
- GI50 ([7]; Homo sapiens): 9 ± 1 µM
- GI50 [8, 17]: 0.26 to 0.88 µM
- greatest difference between growth inhibition in breast cancer cells and normal breast cells (fold) ([8]; SKBR3 vs MCF10A): 16 fold

Compound: O=c1c2cccc3cccc(c4n1Cc1ccccc1N=4)c32 [Compound 13, 7H,9H-benzo[4,5]isoquinolino[1,2-b]quinazolin-7-one]
- GI50 [1, 10]: > 50 µM
- GI50 (BE2-C (neuronal) cells; Homo sapiens, BE(2)-C): 42 ± 1.5 µM
- GI50 (HT29 (colorectal) cells; [11]): > 50 µM
- GI50 [2, 12]: 32 ± 1.9 µM
- GI50 (H460 (lung) cells; [13]): > 50 µM
- GI50 ([3]; Homo sapiens, MCF-10A): 38 ± 1.2 µM
- GI50 (T47D breast cancer cells; Homo sapiens): 40 ± 3.3 µM
- GI50 ([4]; Homo sapiens): 36 ± 3.8 µM
- GI50 [5, 14]: 47 ± 2.7 µM
- GI50 (BT20 breast cancer cells; [15]): > 50 µM
- GI50 ([6]; Homo sapiens): 35 ± 1 µM
- GI50 (U87 (brain) cells; Homo sapiens): > 50 µM
- GI50 (A431 (vulva/skin) cells; [16]): 43 ± 4.4 µM
- GI50 (SJ-G2 (brain) cells; Homo sapiens): 56 ± 3.7 µM
- GI50 (Du145 (prostate) cells; Homo sapiens, DU-145): > 50 µM
- GI50 (MIA (pancreas) cells; Homo sapiens): 38 ± 1 µM
- GI50 (A2780 (ovary) cells; Homo sapiens): > 50 µM
- GI50 ([7]; Homo sapiens): > 50 µM
